Measurements from US20160367553A1, “Methods and Compositions for Treating Cancers having Acquired Resitance to prior Chemotherapeutic and Targeted Drugs Using Carboxyamidotriazole Orotate” (priority 2015, published 2016).

How the values were obtained:
VEGF = conditions: cited from earlier work
[1] = system: imatinib mesylate-resistant chronic myeloid leukemia cells; conditions: cited from earlier work
[2] = system: metastatic colorectal cancer; test: Phase I clinical study of CTO, patient with refractory metastatic colorectal cancer; format: in vivo, human; conditions: 285 mg/m2/day
[3] = system: refractory head and neck tumor; test: Phase I clinical study of CTO, patient with refractory head and neck tumor; format: in vivo, human; conditions: tumor PBKCA, E545K, 285 mg/m2/day
Method: The effectiveness of the CTO treatment is determined by controlled clinical studies. The cancers are evaluated by measuring tumors no more than 14 days before the start of the treatment, and evaluated after 2 cycles of 28 days after day 1 of the administration of the first dose of CTO. The tumor size is measured by the most accurate measurement such as PET-CT, CI scan, MRI scan, x-ray, ultrasound, etc. The criteria for evaluating response are described in the revised Response Evaluation Criteria in Solid Tumors Guidelines, Eisenhauer et al, 1990 and by the Macdonald Criteria for response to high grade gliomas, Macdonald. et al, 1990.
“Progressive disease” is defined as an increase of 25% or greater in the product of the largest perpendicular diameters for at least one bidimensionally measurable tumor, or an increase of 25% or greater at least one undimensionally measurable tumor or appearance of a new lesion or clinical deterioration. […]
“Partial response” means a) for bidimensionally measurable tumors, a decrease of at least 50% in the sum of the products of tire largest perpendicular diameters of all measurable tumors as determined by two observations not less than four weeks apart, b) for undimensionally measurable tumors, a decrease by at least 50% in the sum of the largest diameters of all tumors as determined by two observation not less than four weeks apart. […]

refractory NSCLC = test: Phase I clinical study of CTO, patients with refractory NSCLC; format: in vivo, human; conditions: NSCLC patient; for tumor response measured after two cycles: docetaxel, erlotinib, 28 days
[4] = system: Akt and Erk1/2 phosphorylation; conditions: exosomes-stimulated HUVEC cell; cited from earlier work
renal cell carcinoma = test: Phase I clinical study of CTO, patient with refractory renal cell carcinoma; format: in vivo, human; conditions: 75 mg/m2/day

In the case of NC(=O)c1nnn(Cc2cc(Cl)c(C(=O)c3ccc(Cl)cc3)c(Cl)c2)c1N [CAI, Carboxyamidotriazole], the “effect on VEGF expression and secretion” value (VEGF) is listed as “inhibits VEGF expression, and secretion” and the “apoptosis by down-regulating bcr-abl” value [1] is listed as “induces apoptosis”.
For NC(=O)c1nnn(Cc2cc(Cl)c(C(=O)c3ccc(Cl)cc3)c(Cl)c2)c1N.O=C(O)c1cc(=O)[nH]c(=O)[nH]1 [CTO, carboxyamidotriazole orotate], the “tumor response measured after two cycles” value ([2]; tumor BRAF V660E, prior leucovorin, fluorouracil, oxaliplatin, bevacizumab, cetuximab, capecitabine, panitumumab, irinotecan, 28 days, two cycles) was “responded to CTO by not progressing”, the “stable disease and partial response registered for” value ([2]; tumor) was “six” and the “stable disease and partial response registered for” value [3] was “more than six”. For the same molecule, the “tumor response measured after two cycles” value ([3]; prior cetuximab, cisplatin, taxotere, 28 days, two cycles) was “responded by not progressing”, the “stable disease and partial response registered for” value (refractory NSCLC; tumor EGFR, ELREATS 746-752 V (exon 19), 219 mg/m2/day) was “more than twelve” and the “tumor response measured after two cycles” value (refractory NSCLC; tumor EGFR, ELREATS 746-752 V (exon 19), prior carboplatin, paclitaxel, cisplatin, gemcitamide, premetrexed, 219 mg/m2/day) was “responded by not progressing”. For the same molecule, the “stable disease and partial response registered for” value (refractory NSCLC; tumor PI3KCA, E545K, 219mg/m2/day) was “more than twelve”, the “tumor response measured after two cycles” value (refractory NSCLC; tumor PI3KCA, E545K, prior paclitaxel, carboplatin, 219mg/m2/day) was “responded by not progressing” and the “effect on Akt and Erk1/2 phosphorylation” value [4] was “inhibits Akt and Erk1/2 phosphorylation”. The “stable disease and partial response registered for” value (renal cell carcinoma; CTO continued) was “over twelve” and the “tumor response measured after two cycles” value (renal cell carcinoma; prior IL-2, pegylated IFN, sorafenib, sunitnib, erlotinib, torisel, 28 days, two cycles) was “responded by not progressing”.
